Laboratory results published in patent publication US20150132852A1, “TISSUE CULTURING METHOD, CULTURING METHOD OF FERNS AND EXPLANT OBTAINED THEREFROM” (Chunghwa Picture Tubes, Ltd., priority 2013, published 2015).

Legend:
[1] = tested on: callus rounds of Davallia mariesii; experiment: Sporophyte regeneration from callus rounds under various cytokinins; assay type: cell-based
Description: Finally, the callus round is further cultured in a culture fluid at 23° C. to 25° C. and 11 to 14 μmol^−2 s^−1 (Light:Dark=16:8) for between to 150 days (preferably for 120 days), and are preferably sub-cultured every fifteen days till the callus round regenerates a sporophyte. In this situation, the callus round will keep on growing, and can reach 0.57 cm to 0.7 cm in diameter after approximately 60 days, and reach 1.2 cm to 1.34 cm in 120 days. In the present example, the culture fluid comprises ½ MS medium. In other examples, the culture fluid can further comprise 1 to 5 mg/l N6-(delta 2-isopentenyl)-adenine (2ip), 6-benzylaminopurine (BA) and kinetin, particularly for 1 mg/l N6-(delta 2-isopentenyl)-adenine (2ip). […] Additionally, a regenerated sporophyte of the present example can be further transplanted to a solid medium till it has more than 3 cm length (preferably for 3.5 cm length) for growing into a plant, wherein the plant has a survival rate of up to 90.3%. In the present experiment, callus rounds, being 0.14±0.03 g and 0.21±0.02, are prepared wherein every four are cultured in a culture fluid to induce the callus rounds to regenerate sporophytes, wherein the medium comprises ½ MS medium (including a small amount of sucrose, namely 20 g/l sucrose) and various cytokinins in various amounts as listed in TABLE 3. After 60 days and 120 days of culturing, respectively, sporophytes obtained in each medium are collected and analyzed to record the size of the callus rounds and the number and length of sporophytes regenerated from the callus rounds.

[2] = tested on: chopped prothallium of Davallia mariesii; experiment: Calluses induction from chopped prothallium under various growth regulators; assay type: cell-based; details: 60 days
Description: The prothallium is chopped up into small pieces being 0.1 cm to 0.2 cm in width and cultured (suspending culture) in a medium, wherein the medium comprises ½ MS medium (Murashige and Skoog, 1962) having a composition as shown in TABLE 1. In other examples, the medium can also comprise Knop medium (Murashige and Skoog, 1962) or knudson medium (Knudson, 1946). Precisely, 0.1 g chopped prothallium are cultured in 10 ml ½ MS medium, which are shake cultured at 85 rpm for forty to eighty days, and preferably at 23° C. to 25° C. and 11 to 14 μmol^−2 s^−1 (Light:Dark=16:8) for sixty days, and are sub-cultured every thirty days. In the present experiment, a plurality of 50 ml flasks are prepared, each having 0.1 g chopped prothallium of Davallia mariesii (in 0.1 cm to 0.2 cm pieces) being cultured in a medium therein, wherein the medium comprises 10 ml ½ MS medium (including a small amount of sucrose, namely 20 g/l sucrose) and various growth regulators in various amounts as listed in TABLE 2. After 60 days of culturing, calluses obtained in each flask are collected and analyzed respectively, to record the size, weight and number of each callus.

[3] = 1 mg/l in culture fluid, 120 days
[4] = single growth regulator 1 mg/L in 1/2 MS medium
[5] = single growth regulator 2 mg/L in 1/2 MS medium
[6] = single growth regulator 5 mg/L in 1/2 MS medium

SMILES: CC(C)=CCNc1ncnc2nc[nH]c12 [2ip, N6-(delta 2-isopentenyl)-adenine]
- induction rate of sporophytes [1, 3]: 100%
- proliferation rate of the callus [1, 3]: 537±161.2%
- Diameter (cm) of callus round and sporophyte thereon ([1]; cytokinin 1 mg/L, 60 days): 0.57 ± 0.04 cm
- Induction Rate (%) of sporophyte ([1]; cytokinin 1 mg/L, 60 days): 100.0%
- Proliferation Rate (%) of callus round ([1]; cytokinin 1 mg/L, 60 days): 208.9 ± 24.1%
- Diameter (cm) of callus round and sporophyte thereon ([1]; cytokinin 1 mg/L, 120 days): 1.34 ± 0.22 cm
- Induction Rate (%) of sporophyte ([1]; cytokinin 1 mg/L, 120 days): 100.0%
- Proliferation Rate (%) of callus round ([1]; cytokinin 1 mg/L, 120 days): 537.5 ± 161.2%
- Diameter (cm) of callus round and sporophyte thereon ([1]; cytokinin 2 mg/L, 60 days): 0.60 ± 0.03 cm
- Induction Rate (%) of sporophyte ([1]; cytokinin 2 mg/L, 60 days): 100.0%
- Proliferation Rate (%) of callus round ([1]; cytokinin 2 mg/L, 60 days): 156.0 ± 22.2%
- Diameter (cm) of callus round and sporophyte thereon ([1]; cytokinin 2 mg/L, 120 days): 1.46 ± 0.21 cm
- Induction Rate (%) of sporophyte ([1]; cytokinin 2 mg/L, 120 days): 100.0%
- Proliferation Rate (%) of callus round ([1]; cytokinin 2 mg/L, 120 days): 386.3 ± 99.7%
- Diameter (cm) of callus round and sporophyte thereon ([1]; cytokinin 5 mg/L, 60 days): 0.38 ± 0.03 cm
- Induction Rate (%) of sporophyte ([1]; cytokinin 5 mg/L, 60 days): 0.0%
- Proliferation Rate (%) of callus round ([1]; cytokinin 5 mg/L, 60 days): 64.9 ± 18.3%
- Diameter (cm) of callus round and sporophyte thereon ([1]; cytokinin 5 mg/L, 120 days): 0.91 ± 0.24 cm
- Induction Rate (%) of sporophyte ([1]; cytokinin 5 mg/L, 120 days): 8.3%
- Proliferation Rate (%) of callus round ([1]; cytokinin 5 mg/L, 120 days): 208.3 ± 67.9%

SMILES: c1ccc(CNc2ncnc3nc[nH]c23)cc1 [BA, 6-benzylaminopurine]
- Diameter (cm) of callus round and sporophyte thereon ([1]; cytokinin 1 mg/L, 60 days): 0.29 ± 0.05 cm
- Induction Rate (%) of sporophyte ([1]; cytokinin 1 mg/L, 60 days): 0.0%
- Proliferation Rate (%) of callus round ([1]; cytokinin 1 mg/L, 60 days): 40.5 ± 16.6%
- Diameter (cm) of callus round and sporophyte thereon ([1]; cytokinin 1 mg/L, 120 days): 0.97 ± 0.15 cm
- Induction Rate (%) of sporophyte ([1]; cytokinin 1 mg/L, 120 days): 0.0%
- Proliferation Rate (%) of callus round ([1]; cytokinin 1 mg/L, 120 days): 191.1 ± 71.5%
- Diameter (cm) of callus round and sporophyte thereon ([1]; cytokinin 2 mg/L, 60 days): 0.42 ± 0.06 cm
- Induction Rate (%) of sporophyte ([1]; cytokinin 2 mg/L, 60 days): 0.0%
- Proliferation Rate (%) of callus round ([1]; cytokinin 2 mg/L, 60 days): 89.9 ± 22.9%
- Diameter (cm) of callus round and sporophyte thereon ([1]; cytokinin 2 mg/L, 120 days): 0.77 ± 0.13 cm
- Induction Rate (%) of sporophyte ([1]; cytokinin 2 mg/L, 120 days): 0.0%
- Proliferation Rate (%) of callus round ([1]; cytokinin 2 mg/L, 120 days): 300.0 ± 38.6%
- Diameter (cm) of callus round and sporophyte thereon ([1]; cytokinin 5 mg/L, 60 days): 0.41 ± 0.06 cm
- Induction Rate (%) of sporophyte ([1]; cytokinin 5 mg/L, 60 days): 0.0%
- Proliferation Rate (%) of callus round ([1]; cytokinin 5 mg/L, 60 days): 41.1 ± 16.3%
- Diameter (cm) of callus round and sporophyte thereon ([1]; cytokinin 5 mg/L, 120 days): 0.88 ± 0.16 cm
- Induction Rate (%) of sporophyte ([1]; cytokinin 5 mg/L, 120 days): 0.0%
- Proliferation Rate (%) of callus round ([1]; cytokinin 5 mg/L, 120 days): 216.7 ± 38.7%

SMILES: O=C(O)Cc1cccc2ccccc12 [NAA, 1-Naphthaleneacetic acid]
- Calluses (numbers), callus round in 0.1-0.2 cm [2, 4]: 54.33 ± 9.46 numbers
- Proliferation Rate (%) [2, 4]: 96.6 ± 17.0%
- Calluses (numbers), callus round in 0.1-0.2 cm [2, 5]: 23.67 ± 1.25 numbers
- Proliferation Rate (%) [2, 5]: 53.3 ± 20.6%
- Calluses (numbers), callus round in 0.1-0.2 cm [2, 6]: 0.00 ± 0.00 numbers
- Proliferation Rate (%) [2, 6]: 23.3 ± 4.7%

SMILES: c1coc(CNc2ncnc3nc[nH]c23)c1 [Kinetin, 6-Furfurylamino-purine]
- Calluses (numbers), callus round in 0.1-0.2 cm [2, 4]: 73.67 ± 14.38 numbers
- Proliferation Rate (%) [2, 4]: 153.3 ± 24.9%
- Calluses (numbers), callus round in 0.1-0.2 cm [2, 5]: 21.00 ± 3.74 numbers
- Proliferation Rate (%) [2, 5]: 66.6 ± 17.0%
- Calluses (numbers), callus round in 0.1-0.2 cm [2, 6]: 6.00 ± 5.35 numbers
- Proliferation Rate (%) [2, 6]: 23.3 ± 4.7%
- Diameter (cm) of callus round and sporophyte thereon ([1]; cytokinin 1 mg/L, 60 days): 0.31 ± 0.06 cm
- Induction Rate (%) of sporophyte ([1]; cytokinin 1 mg/L, 60 days): 0.0%
- Proliferation Rate (%) of callus round ([1]; cytokinin 1 mg/L, 60 days): 82.1 ± 24.3%
- Diameter (cm) of callus round and sporophyte thereon ([1]; cytokinin 1 mg/L, 120 days): 0.63 ± 0.09 cm
- Induction Rate (%) of sporophyte ([1]; cytokinin 1 mg/L, 120 days): 16.7%
- Proliferation Rate (%) of callus round ([1]; cytokinin 1 mg/L, 120 days): 231.0 ± 83.5%
- Diameter (cm) of callus round and sporophyte thereon ([1]; cytokinin 2 mg/L, 60 days): 0.23 ± 0.05 cm
- Induction Rate (%) of sporophyte ([1]; cytokinin 2 mg/L, 60 days): 0.0%
- Proliferation Rate (%) of callus round ([1]; cytokinin 2 mg/L, 60 days): 47.0 ± 12.2%
- Diameter (cm) of callus round and sporophyte thereon ([1]; cytokinin 2 mg/L, 120 days): 1.02 ± 0.06 cm
- Induction Rate (%) of sporophyte ([1]; cytokinin 2 mg/L, 120 days): 0.0%
- Proliferation Rate (%) of callus round ([1]; cytokinin 2 mg/L, 120 days): 182.1 ± 88.4%
- Diameter (cm) of callus round and sporophyte thereon ([1]; cytokinin 5 mg/L, 60 days): 0.32 ± 0.07 cm
- Induction Rate (%) of sporophyte ([1]; cytokinin 5 mg/L, 60 days): 0.0%
- Proliferation Rate (%) of callus round ([1]; cytokinin 5 mg/L, 60 days): 72.6 ± 17.5%
- Diameter (cm) of callus round and sporophyte thereon ([1]; cytokinin 5 mg/L, 120 days): 1.13 ± 0.10 cm
- Induction Rate (%) of sporophyte ([1]; cytokinin 5 mg/L, 120 days): 0.0%
- Proliferation Rate (%) of callus round ([1]; cytokinin 5 mg/L, 120 days): 217.9 ± 70.9%
